Experimental data taken from patent EP4631938A1, “NITROGEN-CONTAINING HETEROCYCLE WITH SEROTONIN RECEPTOR-BINDING ACTIVITY AND CARBOCYCLIC DERIVATIVE” (Shionogi & Co., Ltd, priority 2022, dated 2024).
Like-named read-outs stand apart in the source and are kept apart here.

Key:
[1] = target: T1, human recombinant 5-HT2A receptor (Homo sapiens, UniProt P28223); assay: Test Example 1-2: 5-HT2A receptor binding inhibition test ([3H]-Ketanserin; non-specific ligand Ketanserin)
T1 construct: expressed in transfected cells; host or cells: Jump-In HEK cells (membrane preparation)
T1 sequence (P28223 whole entry): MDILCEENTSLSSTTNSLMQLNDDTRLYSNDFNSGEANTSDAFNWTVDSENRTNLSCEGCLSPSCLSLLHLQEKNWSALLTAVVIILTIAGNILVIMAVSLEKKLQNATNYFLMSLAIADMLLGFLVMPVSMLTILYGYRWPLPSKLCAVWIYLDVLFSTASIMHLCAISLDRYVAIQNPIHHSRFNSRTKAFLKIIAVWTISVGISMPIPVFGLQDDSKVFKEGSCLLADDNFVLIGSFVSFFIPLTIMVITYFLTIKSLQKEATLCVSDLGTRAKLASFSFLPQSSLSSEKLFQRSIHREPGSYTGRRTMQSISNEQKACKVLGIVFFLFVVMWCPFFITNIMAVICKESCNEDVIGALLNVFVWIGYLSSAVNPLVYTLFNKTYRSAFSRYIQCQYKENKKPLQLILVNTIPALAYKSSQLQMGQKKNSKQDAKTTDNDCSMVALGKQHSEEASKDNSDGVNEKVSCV
Summary of the method: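 Membranes expressing the receptor were incubated with [3H]-ketanserin and compound for 1.5 h at 25 °C, then filtered onto plates presoaked in 50 mmol/L Tris-HCl pH 7.4 and scintillation-counted. Non-specific binding was defined with 500 µmol/L unlabeled ketanserin. Ki was taken from dose-response curves, with Kd set for each membrane lot by Scatchard analysis.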

[2] = target: T2, human recombinant 5-HT2C receptor (Homo sapiens, UniProt P28335); assay: Test Example 2-2: 5-HT2C receptor binding inhibition test ([3H]-Mesulergine; non-specific ligand Ketanserin); conditions: non-specific binding with 500 µmol/L Ketanserin, 37°C, 2 hours
T2 construct: expressed in transfected cells; host or cells: Jump-In HEK cells (membrane preparation)
T2 sequence (P28335 33-458): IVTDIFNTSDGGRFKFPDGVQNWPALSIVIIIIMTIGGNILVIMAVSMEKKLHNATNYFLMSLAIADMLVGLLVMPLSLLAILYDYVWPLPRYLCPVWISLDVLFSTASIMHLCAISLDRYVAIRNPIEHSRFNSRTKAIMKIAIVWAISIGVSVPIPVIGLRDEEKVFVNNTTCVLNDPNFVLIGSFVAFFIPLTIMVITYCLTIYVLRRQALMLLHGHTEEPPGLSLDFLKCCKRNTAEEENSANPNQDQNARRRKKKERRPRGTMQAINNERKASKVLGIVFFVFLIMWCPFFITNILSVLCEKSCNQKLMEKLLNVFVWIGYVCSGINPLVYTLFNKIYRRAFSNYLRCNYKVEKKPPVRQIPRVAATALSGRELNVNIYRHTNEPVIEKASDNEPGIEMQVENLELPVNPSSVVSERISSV
Procedure: The Kd value is calculated when the lot of the cell membrane is changed. 1 mmol/L non-specific binding calculating compound dissolved in DMSO or DMSO is previously dispensed to the microplate by 0.5 µL, and the cell membrane is diluted with an Assay buffer. The radioactive ligand solution is diluted step by step, and counts are checked with a liquid scintillator. The Assay buffer containing diluted cell membranes is dispensed by 50 µL/well into the microplate. The radioactive ligand solution is then dispensed by 50 µL/well into the microplate and the plate is sealed. The microplate is allowed to stand at 37°C for 2 hours. During this time, 50 mmol/L Tris-HCl (pH 7.4) is dispensed by 50 µL/well into the UniFilter plate and allowed to stand at 4°C for 1 hour or longer. Thereafter, filtration is performed with a Cell Harvester (PerkinElmer). The radioactive ligand solution is dispensed by 10 µL/well into empty wells of the UniFilter plate. After drying the UniFilter plate at room temperature, MicroScinti20 is dispensed by 50 µL/well into the UniFilter plate, and the plate is sealed. UniFilter plate is allowed to stand at room temperature overnight. The radioactivity of [^3H]-Mesulergine bound to the 5-HT2C receptor is measured using Microbeta2 (PerkinElmer) at a measurement time of 1 min/well. The Saturation curve is drawn from the measured value, and the Kd value is calculated from the slope of the Scatchard Plot.
A compound solution dissolved in DMSO is dispensed to a microplate by 0.5 µL, and a cell membrane and a hot ligand are each diluted with an Assay buffer. The Assay buffer containing diluted cell membrane is then dispensed by 50 µL/well into the microplate. The radioactive ligand solution is then dispensed by 50 µL/well into the microplate and the plate is sealed. The microplate is then allowed to stand at 37°C for 2 hours. During this time, 50 mmol/L Tris-HCl (pH 7.4) is dispensed by 50 µL/well into the UniFilter plate and allowed to stand at 4°C for 1 hour or longer. Thereafter, filtration is performed with a Cell Harvester (PerkinElmer). After drying the UniFilter plate at room temperature, MicroScinti20 is dispensed by 50 µL/well into the UniFilter plate, and the plate is sealed. UniFilter plate is allowed to stand at room temperature overnight. The radioactivity of [^3H]-Mesulergine bound to the 5-HT2C receptor is measured using Microbeta2 (PerkinElmer) at a measurement time of 1 min/well. Non-specific binding is calculated from the radioactivity of [^3H]-Mesulergine in the presence of 500 µmol/L Ketanserin of unlabeled ligand, and total binding is calculated from the radioactivity of [^3H]-Mesulergine in the absence of the compound of the present invention (Vehicle). Finally, the Ki value is calculated from the dose-response curve.
(The binding activity of the compound according to the present invention is calculated from the following binding inhibition rate (%).) Inhibition rate (%) = [1−(c−a)/(b−a)] × 100 [formula] • a; average cpm of non-specific binding • b; average cpm of total binding • c; cpm in the presence of the test compound
The compounds of the present invention were tested essentially as described above.

[3] = target: T2, human recombinant 5-HT2C receptor; assay: Test Example 2: 5-HT2C receptor binding inhibition test ([3H]-Mesulergine; non-specific ligand Serotonin HCl); conditions: human serotonin 5-HT2C receptor binding activity
Summary of the method: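 Filtration binding to membranes bearing human 5-HT2C with [3H]-mesulergine, 2 h at 37°C; non-specific binding defined with 500 µmol/L serotonin HCl, total binding with vehicle. Inhibition rate computed from cpm; Ki derived from dose-response curve, with ligand Kd from Scatchard analysis of saturation binding.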

[4] = [3H]-Ketanserin, non-specific binding with 500 µmol/L Ketanserin, room temperature (25°C), 1.5 hours, read-out: h 5-HT2A Ki

SMILES	Ki [1, 4] [nM]	Ki [2] [nM]	Ki [3] [nM]	Ki [1] [nM]
OCCOc1ccc(Nc2ncc(C(F)(F)F)cc2F)cc1-c1ccncc1Cl [Compound I-011]	0.133	4.55	–	–
Cc1ncccc1-c1cc(Nc2ncc(C(F)(F)F)cc2F)ccc1OCCO [Compound I-013]	0.332	7.21	–	–
Cn1ncc(Cl)c1-c1cc(Nc2ncc(C(F)(F)F)cc2F)ccc1OCCO [Compound I-015]	0.195	0.248	–	–
OCCOc1ccc(Nc2ncc(C(F)(F)F)cc2F)cc1-c1c(F)cccc1Cl [Compound I-019]	0.548	3.12	–	–
Cc1cccc(F)c1-c1cc(Nc2ncc(C(F)(F)F)cc2F)ccc1OCCO [Compound I-020]	–	5.38	–	1.12
Cc1cc(C)c(-c2cc(Nc3ncc(C(F)(F)F)cc3F)ccc2OCCO)c(C)c1 [Compound I-021]	0.722	4.1	–	–
Cc1cnn(Cc2nc(C)c(-c3cc(Nc4ncc(C(F)(F)F)cc4Cl)ncc3OCCO)c(C)n2)c1 [Compound I-379]	1.13	–	0.791	–
COc1nc(C)nc(OC)c1-c1cc(Nc2ncc(C(F)(F)F)cc2Cl)ncc1OCCO [Compound I-380]	0.527	–	7.28	–
Cc1nc(COC2CCOCC2)nc(C)c1-c1cc(Nc2ncc(C(F)(F)F)cc2Cl)ncc1OCCO [Compound I-381]	2.66	–	3.58	–
Cc1nc(C)c(-c2nc(Nc3ccc(C(F)(F)F)c(C)n3)c(F)cc2OCCO)c(C)n1 [Compound I-384]	2.87	–	4.58	–
Cn1ncc(Cl)c1-c1nc(Nc2ccc(C(F)(F)F)cn2)c(F)cc1OCCO [Compound I-385]	0.226	–	5.08	–
Cn1ncc(Br)c1-c1nc(Nc2nc3ccc(F)cc3s2)c(F)cc1OCCO [Compound I-388]	0.366	–	7.66	–
COCc1nc(C)c(-c2nc(Nc3cc(-c4ccccc4)no3)c(F)cc2OCCO)c(C)n1 [Compound I-393]	17.6	–	78.9	–
COCc1nc(C)c(-c2nc(Nc3ccc(C(F)(F)F)c(OC)n3)c(F)cc2OCCO)c(C)n1 [Compound I-394]	1.34	–	2.16	–
COCc1nc(C)c(-c2nc(Nc3ccc(OC(F)(F)F)c(C)n3)c(F)cc2OCCO)c(C)n1 [Compound I-395]	3.37	–	1.84	–
Cn1ncc(Br)c1-c1cc(Nc2ncc(Cl)cn2)c(Cl)cc1OCCO [Compound I-398]	0.576	–	5.26	–
Cn1ncc(Br)c1-c1cc(Nc2ncc(C(F)(F)F)cc2F)c(Cl)cc1OCCO [Compound I-399]	0.347	–	0.86	–
Cn1ncc(Br)c1-c1cc(Nc2ccc(C(F)(F)F)cn2)c(Cl)cc1OCCO [Compound I-400]	0.338	–	1.38	–
Cn1ncc(Br)c1-c1cc(Nc2ccc(Cl)cn2)c(Cl)cc1OCCO [Compound I-401]	0.211	–	0.849	–
Cn1ncc(Br)c1-c1cc(Nc2nc3ccc(F)cc3s2)c(F)cc1OCCO [Compound I-405]	0.274	–	0.293	–
Cn1ncc(Cl)c1-c1cc(Nc2ncc(C(F)(F)F)cn2)c(Cl)cc1OCCO [Compound I-410]	0.573	–	3.94	–

Further molecules by falling Ki [1, 4], results first:

Ki [1, 4] [nM]	Ki [2] [nM]	Ki [3] [nM]	SMILES	Ki [1] [nM]
9.96	–	17.2	COCc1nc(C)c(-c2nc(Nc3ccc(C(F)(F)F)c(C#N)n3)c(F)cc2OCCO)c(C)n1 [Compound I-396]	–
2.9	–	4.66	Cc1nc(CO[C@H]2CCOC2)nc(C)c1-c1cc(Nc2ncc(C(F)(F)F)cc2Cl)ncc1OCCO [Compound I-377]	–
2.88	–	12.3	Cc1nc(C)c(-c2cc(Nc3ncc(OC(F)(F)F)cc3F)ncc2O[C@H](C)CO)c(C)n1 [Compound I-392]	–
2.57	–	4.59	Cc1nc(C)c(-c2nc(Nc3ccc(OC(F)(F)F)c(C)n3)c(F)cc2OCCO)c(C)n1 [Compound I-383]	–
1.27	–	1.57	Cc1nc(COCC(F)F)nc(C)c1-c1cc(Nc2ncc(C(F)(F)F)cc2Cl)ncc1OCCO [Compound I-375]	–
1.2	–	2.41	Cc1nc(C)c(-c2cc(Nc3ncc(C(F)(F)F)cc3C)ncc2OCCO)c(C)n1 [Compound I-389]	–
1.08	–	3.91	Cc1nc(C)c(-c2cc(Nc3ncc(C(F)(F)F)cc3Cl)ncc2OCCO)c(C)n1 [Compound I-390]	–
0.565	–	29.9	Cn1ncc(Br)c1-c1cc(Nc2ccc(C(F)F)nn2)c(F)cc1OCCO [Compound I-403]	–
0.533	–	11	Cn1ncc(Br)c1-c1cc(Nc2ccc(C(F)(F)F)nn2)c(F)cc1OCCO [Compound I-402]	–
0.463	–	2.48	Cn1ncc(Br)c1-c1cc(Nc2nc3ccc(F)cc3[nH]2)c(F)cc1OCCO [Compound I-406]	–
0.42	–	2.12	Cn1ncc(Cl)c1-c1cc(Nc2ncc(C(F)(F)F)cc2F)c(Cl)cc1OCCO [Compound I-409]	–
0.413	8.88	–	COc1ncccc1-c1cc(Nc2ncc(C(F)(F)F)cc2F)ccc1OCCO [Compound I-014]	–
0.413	–	1.8	Cn1ncc(Br)c1-c1cc(Nc2ncc(C(F)(F)F)cn2)c(Cl)cc1OCCO [Compound I-397]	–
0.384	–	1.89	Cn1ncc(Br)c1-c1cc(Nc2nc3ccc(F)cc3s2)c(Cl)cc1OCCO [Compound I-408]	–
0.362	–	5.79	Cn1ncc(Br)c1-c1cc(Nc2cnc(C(F)(F)F)cn2)c(F)cc1OCCO [Compound I-404]	–
0.357	–	19	CNC(=O)c1ccc(F)c(-c2cc(Nc3ncc(C(F)(F)F)cc3F)ncc2OCCO)c1 [Compound I-391]	–
0.318	–	3.82	Cn1ncc(Br)c1-c1nc(Nc2ccc(C(F)(F)F)cn2)c(Cl)cc1OCCO [Compound I-387]	–
0.284	0.699	–	Cn1ncc(Br)c1-c1cc(Nc2ncc(F)cc2F)ccc1OCCO [Compound I-016]	–
0.272	6.43	–	Cc1cnccc1-c1cc(Nc2ncc(C(F)(F)F)cc2F)ccc1OCCO [Compound I-012]	–
0.266	0.415	–	Cn1ncc(Br)c1-c1cc(Nc2ncc(Cl)cc2F)ccc1OCCO [Compound I-017]	–
0.246	1.41	–	Cc1noc(C)c1-c1cc(Nc2ncc(C(F)(F)F)cc2F)ccc1OCCO [Compound I-010]	–
0.244	–	5.22	Cn1ncc(Cl)c1-c1nc(Nc2ccc(OC(F)(F)F)cn2)c(F)cc1OCCO [Compound I-386]	–
0.235	1.89	–	Cn1ncc(F)c1-c1cc(Nc2ncc(C(F)(F)F)cc2F)ccc1OCCO [Compound I-018]	–
0.225	–	3.64	Cn1ncc(Br)c1-c1cc(Nc2cc(C(F)(F)F)ccn2)c(F)cc1OCCO [Compound I-407]	–
